In ChEMBL document CHEMBL2429749, “Trichinenlides A-T, mexicanolide-type limonoids from Trichilia sinensis” (J Nat Prod, 2013):

Tested on: RAW264.7
Test: Antiinflammatory activity in mouse RAW264.7 cells assessed as inhibition of LPS-induced nitric oxide production preincubated for 2 hrs followed by LPS challenge measured after 24 hrs
Type: functional, cell-based

Row | SMILES | IC50
1 | C/C=C/C(=O)O[C@H]1C(C)(C)[C@H](CC(=O)OC)[C@]2(C)C(=O)[C@@]1(O)[C@H]1O[C@]13[C@@H]1CC(=O)O[C@@H](c4ccoc4)[C@]1(C)CC[C@H]23 | 3.33 µM
2 | COc1cc(/C=C/C(=O)CC(=O)/C=C/c2ccc(O)c(OC)c2)ccc1O [CURCUMIN] | 5 µM
3 | C/C=C/C(=O)O[C@H]1C(C)(C)[C@H](CC(=O)OC)[C@]2(C)C(=O)[C@@]1(O)[C@H]1O[C@@]13C2=CC[C@]1(C)[C@H]3CC(=O)O[C@H]1c1ccoc1 [TRICHINENLIDE B] | 2.85 µM
4 | C/C=C/C(=O)O[C@H]1C(C)(C)[C@H](C(O)C(=O)OC)[C@]2(C)C(=O)[C@@]1(O)[C@H]1O[C@@]13C2=CC[C@]1(C)[C@H]3CC(=O)O[C@H]1c1ccoc1 (some centres undefined) [TRICHINENLIDE C] | 1.88 µM
